# Experiment: physchem
# Conditions: phosphate buffer, pH 7, aqueous buffer
# Description: Solubility of the compounds is determined at four fixed concentrations and is expressed as µg/mL. Solubility or insolubility is measured in phosphate buffer using a turbidometric plate reader by automated micro addition of a compound predissolved in DMSO. Solubilities at 50, 100, 200 and 250 or 100, 200, 400 and 500 micrograms/mL can be determined by predissolving 1 mg of compound in sufficient DMSO to reach an initial concentration of 20 or 40 µg/ µL.
# A spectramax 250 UV transparent 96 well microplate is filled with 200 µL of Stock pH 7 phosphate buffer solution. A series of 25 absorption readings in a 5 by 5 matrix at a wavelength of 492nm are taken for each well in the microplate containing pH buffer alone. […]
# After compound addition, a second scan consisting of a series of 25 absorption readings in a 5 by 5 matrix are taken for each well in the microplate at the same wavelength as the first blank scan. The raw compound OD values for each reading in the 5 by 5 matrix are subtracted from the corresponding "blank" values in the 5 by 5 matrix to provide the raw solubility OD data.
# Data obtained from the Tecan SLT Spectra Image Reader is then analyzed using a Visual Basic computer program (or can be calculated manually according to methods well known to those of ordinary skill in the art), so as to provide solubility data for each compound.
row,Structure (SMILES),solubility [µg/mL]
1,"CC(C)(O)CC[C@H](C[C@H](O)[C@H](Cc1cccc(Cl)c1)NC(=O)c1cnc2ccccc2n1)C(N)=O [Example 2, Quinoxaline-2-carboxylic acid [4(R)-carbamoyl-1(S)-(3-chloro-benzyl)-2(S),7-dihydroxy-7-methyl-octyl]-amide]",> 100
2,CC(C)(F)CC[C@H](C[C@H](O)[C@H](Cc1ccccc1)NC(=O)c1cnc(Cl)c(Cl)c1)C(N)=O [Example 247],< 5
